Measurements taken from patent publication US5183896A, “Derivatives of 1,2,5,6-tetrahydropyridin-3-carboxaldehyde oxime” (Roussel Uclaf, priority 1990, dated 1993).
Like-named read-outs stand apart in the source and are kept apart here.

Legend:
[1] = Acute toxicity, oral, mortality over 7 days; settings: mouse, in vivo, male mice
Procedure: The test is carried out on male mice (CD1 Charles Rivers) weighing 22 to 24 g, which have gone without food for 16 hours. […] The mortality is noted over the 7 days following the treatment.

[2] = tested on: isolated ileum of a guinea pig; assay: Test of the isolated ileum of a guinea pig (agonist contraction); settings: Cavia porcellus, Tyrode solution, 37° C., read-out: pD2 (negative logarithm of the dose which produces 50% of the maximum effect) (converted)
Procedure: 1Test of the isolated ileum of a guinea pig
Ileum fragments are removed from a guinea-pig killed by decapitation. The isolated ileum is placed in 10 cm^3 of Tyrode solution at 37° C. and aerated by a mixture of oxygen (95%) and carbon dioxide (5%). Contractions caused by the products are recorded using a sensor connected to a polygraph. The products under test are added, at concentrations comprised between 1.10^-3 M and 1.10^-8 M/1.
The products showing a contracturating effect are tested relative to atropine and hexamethonium in order to establish whether the activity is of "muscarinic" or "nicotinic" type.
The agonist activity is expressed in pD2 (negative logarithm of the dose which produces 50% of the maximum effect).

[3] = tested on: male mice (CD1 Charles Rivers); assay: Diarrheic activity, oral; assay type: in vivo, mouse
Procedure: The test is carried out on male mice (CD1 Charles Rivers) weighing 25 to 30 g, which have gone without food for 6 hours. The product dissolved at 5% in methocel is administered by oral route, using a probang.
The control animals receive only the excipient.
After treatment, the animals are put separately in cages. The bottoms of the cages are covered with blotting paper and are observed at 30, 60, 120 and 180 minute intervals.
The absorbent sheets of paper are changed after each observation.
The consistency of the faeces is evaluated according to the method of Randall and Baruth (Arch. Int. Pharmacodyn. 220, 94, 1976) by following the scale of the following values:
1: slightly soft feces with or without moist ring,
2: slightly soft feces with presence of a well-defined moist circle,
3: soft feces with presence of a large moist circle,
4 feces without consistency with presence of a very large moist circle.
For each product, the dose was noted which caused diarrhoea in 50% of the animals according to the method of Miller and Tainter (Proc. Soc. Exp. Biol. Med., 57 261, 1944).

[4] = tested on: male mice (CD1 Charles Rivers); assay: Hypothermic activity: dose reducing body temperature by 1° C.; assay type: in vivo; settings: Mus musculus, read-out: Effective dose (-1° C.)
Procedure: (§1) The test is carried out on male mice (CD1 Charles Rivers) weighing 25 to 30 g, which have gone without food for 6 hours.
(§2) The body temperature is noted using a thermocouple placed about […] inside the rectum and connected to an electrical temperature recorder.
(§3) The products are administered by oral or sub-cutaneous route and the temperatures are noted at 0 and 30 minutes, 1 hour, 2 hours and 2 and a half hours after treatment.
(§4) The degree of hypothermia is evaluated as the difference between the treated animals and the control animals and the dose necessary to reduce the body temperature by 1° C. is determined.

[5] = tested on: male mice (CD1 Charles Rivers); assay: Duration of hypothermic action: variations in body temperature; assay type: in vivo, mouse
Procedure: as §1, §2, §3, §4
The duration of action of the products is determined by using doses which can reduce the temperature by 1.5° C. to 1.7° C.

Solubility = assay type: physicochemical; settings: for solubility in water: H2O
[6] = tested on: male mice (CD1 Charles Rivers); assay: Duration of hypothermic action: variations in body temperature; assay type: in vivo, mouse; settings: 180 min
[7] = tested on: central cholinergic system; settings: cited from earlier work
[8] = tested on: patients who have a memory deficiency; settings: intravenous route; cited from earlier work

| solubility in 2N HCl (Solubility) | solubility in 2N NaOH (Solubility) | solubility in water (Solubility) | Structure (SMILES) | EC50 [2] [nM] | DE50 (dose which caused diarrhoea in 50% of the animals) [3] [mg/kg] | ED (-1 C body temperature) ([4]; SC route) [mg/kg] | ED (-1 C body temperature) ([4]; oral route) [mg/kg] | also measured |
| --- | --- | --- | --- | --- | --- | --- | --- | --- |
|  |  |  | COC(=O)C1=CCCN(C)C1 [arecoline] |  |  |  |  | duration of action ([7]; in vivo): short-term action; activity by oral route ([7]; oral route): very weak activity by oral route; effect on patients who have a memory deficiency [8]: positive effect |
|  |  |  | COC(=O)C1=CCCN(C)C1 [Arecoline, HBr, reference compound] | 126 | 35 | 3 | 190 | Variation in body temperature ([5]; 3.5 mg/kg, sc, 0 min): -0.1 °C; Variation in body temperature ([5]; 3.5 mg/kg, sc, 30 min): -1.5 °C; Variation in body temperature ([5]; 3.5 mg/kg, sc, 60 min): -0.1 °C; Variation in body temperature ([5]; 3.5 mg/kg, sc, 120 min): +0.2 °C; Variation in body temperature ([6]; 3.5 mg/kg, sc): +0.2 °C |
| insoluble | insoluble | insoluble | CCN(CC)C(=O)COC(=O)N1CCC=C(C=NOC)C1 [Example 2, (diethylaminocarbonyl) methyl 3-(methoxyiminomethyl)-1,2,5,6-tetrahydropyridine-1-carboxylate] |  |  |  |  |  |
| soluble | insoluble | soluble | CON=CC1=CCCN(C(=O)OCC(=O)N2CCN(C)CC2)C1 [Example 5, (4 methyl-1-piperazinyl)-carbonylmethyl 3-(methoxyiminomethyl)-1,2,5,6-tetrahydropyridine-1-carboxylate] |  |  |  |  |  |
| insoluble | insoluble | insoluble | CON=CC1=CCCN(C(=O)OCC(=O)N2CCCCC2)C1 [Example 4, (1-piperidinylcarbonyl)-methyl 3-(methoxyiminomethyl)-1,2,5,6-tetrahydropyridine-1-carboxylate] |  |  |  |  |  |

| Structure (SMILES) | solubility in 2N HCl (Solubility) | solubility in 2N NaOH (Solubility) | solubility in water (Solubility) | EC50 [2] [nM] | DE50 (dose which caused diarrhoea in 50% of the animals) [3] [mg/kg] | ED (-1 C body temperature) ([4]; SC route) [mg/kg] | ED (-1 C body temperature) ([4]; oral route) [mg/kg] | also measured |
| --- | --- | --- | --- | --- | --- | --- | --- | --- |
| C=CCN(CC=C)C(=O)COC(=O)N1CCC=C(C=NOC)C1 [Example 3, (di(2-propenyl)-aminocarbon-yl)-methyl 3-(methoxyiminomethyl)-1,2,5,6-tetrahydropyridine-1-carboxylate] | insoluble | insoluble | insoluble | > 100000 | > 50 | 8 | 9 | LD50 at 168 h [1]: 500 mg/kg; Variation in body temperature ([5]; 12 mg/kg, sc, 30 min): -0.9 °C; Variation in body temperature ([5]; 12 mg/kg, sc, 60 min): -1.6 °C; Variation in body temperature ([5]; 12 mg/kg, sc, 120 min): -0.6 °C; Variation in body temperature ([5]; 15 mg/kg, os, 0 min): +0.1 °C; Variation in body temperature ([5]; 15 mg/kg, os, 30 min): -1.3 °C; Variation in body temperature ([5]; 15 mg/kg, os, 60 min): -1.7 °C; Variation in body temperature ([5]; 15 mg/kg, os, 120 min): -0.5 °C; Variation in body temperature ([6]; 15 mg/kg, os): +0.1 °C |
